Earlier results in patent US5874549A, “Acid-cleavable compound” (NeoRx Corporation, priority 1993, dated 1999).

Conditions: relative to Cpd 1 = 1

Relative Rate (hydrolysis of the amide group) | Structure (SMILES)
31.2 | CNC(=O)/C=C(/C)C(=O)O [Cpd 2]
44.5 | CNC(=O)/C=C(\C(=O)O)C(C)C [Cpd 4]
2.6 | CC(C)(C)NC(=O)/C=C\C(=O)O [Cpd 12]
0.7 | CC(C)NC(=O)/C=C\C(=O)O [Cpd 11]
42.7 | CN(C)C(=O)/C=C\C(=O)O [Cpd 14]
32.8 | CC/C(=C/C(=O)NC)C(=O)O [Cpd 3]
4.5 | O=C(O)/C=C\C(=O)Nc1ccccc1 [Cpd 13]
1 | CNC(=O)/C=C\C(=O)O [Cpd 1]

Further lines, the compound ahead of its results:

Structure (SMILES) | Relative Rate (hydrolysis of the amide group)
CNC(=O)c1ccccc1C(=O)O [Cpd 10] | 0.72
C=CC(=O)NC [N-methyl acrylamide] | ~1.4 × 10^-7
CNC(=O)C1=C(C(=O)O)CCCC1 [Cpd 7] | 540
CCCNC(=O)/C(C)=C(/C)C(=O)O [Cpd 6] | 2.35 × 10^4
CNC(=O)C1=C(C(=O)O)CCC1 [Cpd 8] | 4.2 × 10^-5
CNC(=O)C1=C(C(=O)O)CC1 [Cpd 9] | 4.2 × 10^-6
CNC(=O)/C=C(\C(=O)O)C(C)(C)C [Cpd 5] | 68.0
